Measurements from article PMC11170954, “Effect of Peptide–Polymer Host–Guest Electrostatic Interactions on Self-Assembling Peptide Hydrogels Structural and Mechanical Properties and Polymer Diffusivity” (Biomacromolecules, 2024).
Ends that are not written are not given here.

Experiments:
[1] = Peptide titration with NaOH (pKa-like transitions, net charge assignment); assay type: physicochemical; conditions: stepwise NaOH addition to peptide solution in HPLC grade water; for first pKa-like transition (deprotonation of glutamic acid side groups), pH: start pH ∼3.2, transition observed up to this pH
Description: Peptide titration experiments were performed by adding 0.1 or 0.5 M NaOH solutions in 1–2 μL steps to a 1 mL HPLC-grade water peptide solution with a 2 mg mL^–1 starting concentration. After each NaOH addition, the samples were vigorously agitated using a vortex to ensure homogeneous mixing and the pH was measured using a Fisherbrand Hydrus 300 benchtop pH meter.
As stated in the introduction, these two peptides were designed to be “symmetrical” in relation to the position and distribution of their anionic (COOH/COO^–) and cationic (NH3^+/NH2) groups and to carry an overall theoretical net charge modulus of 1 at pH 7. As shown in our previous work, self-assembly can induce a shift in pKa of these ionic groups depending on the surrounding environment created.[26],[38] To investigate the effect of self-assembly on pKa of these groups, titration experiments were performed on each peptide at a […] concentration. The resulting curves are presented in Figure 2A, B. Both peptides were purchased as HCl salts; therefore, when dissolved in water low pH, ∼ 3.2, solutions were obtained. Upon addition of NaOH a first pKa-like transition was observed up to pH 5 for K(FEFK)2 and pH 4.5 for E(FKFE)2. This first transition is associated in both cases with deprotonation of the glutamic acid side groups.

[2] = Hydrogel behaviour in cell culture media without cells; assay type: physicochemical; conditions: after 14 days in cell culture media (DMEM, αMEM), no cells, 37 °C
Description: Rheological measurements were performed using a Discovery Hybrid 2 (DHR-2) rheometer from TA Instruments (New Castle, Delaware, USA) using a 20 mm parallel plate geometry and a 500 μm gap. Samples were prepared as described earlier. Hydrogels (200 μL) were pipetted onto the rheometer’s static bottom plate and the rheometer top plate lowered to the desired gap size. For hydrogel in cell culture inserts and conditioned with cell culture media (see below), the bottom membranes of the insets were removed, and the hydrogels deposited on the rheometer’s static bottom plate. Samples were covered with a solvent trap to avoid evaporation and left to equilibrate at 37 °C for 180 s before the experiments. Strain sweep experiments were performed at 1 Hz in the 0.01–100% strain range. The shear-thinning and recovery (i.e., injectability) experiments were performed by applying sequentially a low shear strain (0.2%) for 5 min followed by a high shear strain (1000%) for 1 min and again a low shear strain (0.2%) for 5 min.
Hydrogel samples were removed from the fridge (4 °C) and prewarmed to 37 °C. Cells were encapsulated into the hydrogel by gentle pipetting to ensure an evenly mixed sample, at a final density of 1 × 10^6 cells mL^–1. 100 μL of cell-laden hydrogel was then dispensed into ThinCert inserts (Greiner Bio-One) in 24-well plates and cell culture medium (1 mL) was added into each well/insert. […]

[3] = Swelling / stability of hydrogels in excess water; assay type: physicochemical; conditions: 12 mg mL^–1 peptide, 0.8 mg mL^–1 polymer where loaded, 1 mL gel + 3 mL HPLC grade water
Description: Hydrogels were prepared as described earlier at 12 mg mL^–1, and 1 mL was transferred into 5 mL cylindrical glass vials. Vials were gently tapped on the bench to eliminate any bubbles and obtained flat surfaces, and the height of the hydrogels was measured (day 0). Three milliliters of HPLC-grade water was then added on the top of the hydrogels. After being stored the samples for 10 days at 37 °C, the vials were inverted, and the height of the hydrogels was measured once again (day 10). The swelling ratio (Q) was defined as (H1 – H0)/H0, where H0 is the height of the hydrogel at day 0 and H1 is the height of the hydrogel at day 10.

[4] = system: immortalized human bone marrow-derived MSC line (Y201); assay type: cell-based
Description: (§1) 3T3 mouse fibroblast and an immortalized human bone marrow-derived MSC line (Y201)[37] were used to assess the cytocompatibility of the hydrogels. The 3T3 cells were cultured in Dulbecco’s Modified Eagle’s Medium (DMEM) (Gibco), 1% penicillin–streptomycin (Sigma–Aldrich, P0781), and 10% fetal bovine serum (Sigma–Aldrich, F9665), while the MSCs were cultured in Minimum Essential Medium Eagle (αMEM) (Sigma-Aldrich, M4526), 10% fetal bovine serum (Sigma–Aldrich, F7524), 1% antibiotic/antimycotic solution (Sigma–Aldrich, A5955), 1% GlutaMAX (Life Technologies, 35050038), and 0.01% L-ascorbic acid 2-phosphate (Sigma–Aldrich, A8960). Cells were harvested when reaching 70–80% confluency. For cell counting, the cell suspension was mixed (1:1 ratio) with a 0.4% trypan blue solution (Bio-Rad) and cell counted using an automated cell counter (Cellometer Auto 1000, Nexcelom).
(§2) Hydrogel samples were removed from the fridge (4 °C) and prewarmed to 37 °C. Cells were encapsulated into the hydrogel by gentle pipetting to ensure an evenly mixed sample, at a final density of 1 × 10^6 cells mL^–1. 100 μL of cell-laden hydrogel was then dispensed into ThinCert inserts (Greiner Bio-One) in 24-well plates and cell culture medium (1 mL) was added into each well/insert. 250 μL was added to the top of the hydrogel surface in the inset, and 750 μL was added to the well. Cell culture plates were then incubated at 37 °C with 5% of the CO2. The growth medium was changed every 20 min during the first hour of the experiment and subsequently every 2 days.
To assess cell viability in the hydrogels, the live/dead assay (Thermo Fisher Scientific) was used. The cell culture medium was removed, and the samples were washed 3 times with DPBS. A working solution of staining reagent was prepared in DPBS (4 μM ethidium homodimer I and 2 μM calcein-AM) and 100 μL was added to the top of the hydrogel surfaces (in the insets) and a further 600 μL into the wells. […]

[5] = TEM fiber width analysis; assay type: physicochemical; conditions: log-normal fit, 700 fibers, cut-off 20 nm, hydrogels 12 mg mL^–1 peptide (0.8 mg mL^–1 polymer where loaded), pH 7, diluted 20-fold
Description: Hydrogels were prepared as described earlier and diluted 20-fold using HPLC-grade water. The samples were vigorously mixed with a vortex to separate as much as possible the fibers. A carbon-coated copper grid (400 mesh grid Electron Microscopy Sciences, Hatfield, Pennsylvania, USA) was glow discharged and charged negatively. The carbon copper grid was then placed sequentially on a 10 μL sample droplet for 60 s, a 10 μL droplet of HPLC grade water for 10 s three times, a 10 μL droplet of 5% uranyl acetate solution for 30 s, and finally, on a 10 μL droplet of HPLC grade water for 10 s. After each step, excess liquid was drained off using lint-free tissue (90 mm Whatman 1). The grid was then left to air-dry for 2–5 min. TEM images were taken using an FEI Tecnai12 BioTwin transmission electron microscope running at 100 kV and equipped with a Gatan Orius SC1000A CCD camera. Fiber width analysis was performed by measuring randomly the widths of 700 fiber (cut-off size 20 nm) using ImageJ software across at least three TEM images for each sample.

[6] = Small-angle X-ray scattering of hydrogels; assay type: physicochemical; conditions: for fibers cross-section radius of gyration, Rσ: SAXS Guinier fit, hydrogels 6 mg mL^–1, pH 7; for estimated fiber diameter, df: from Rσ assuming cylindrical geometry
Description: SAXS experiments were performed on beamline I22 at the diamond light source (DLS) synchrotron (Didcot, UK).[31] The energy of the beam was 12.4 keV, corresponding to an X-ray wavelength of 0.1 nm. Quartz capillaries (1.5 mm outer diameter and 0.01 mm wall thickness) from Capillary Tube Supplies Ltd. (Bodmin, UK) were used as sample holders. The samples were prepared as described earlier and injected into the capillaries using a syringe. The sample-to-detector distance was fixed to 5.77 m, corresponding to an accessible momentum transfer vector range of 0.1 nm^–1 < q = (4π/λ) sin(θ/2) < 3.0 nm^–1, where θ is the scattering angle and λ is the wavelength of the incident photons. Calibration of the SAXS detector (Pilatus P3–2M, Dectris, Switzerland) was performed using silver behenate powder, and data were collected as 10 × 100 ms frames. Data were reduced using the Dawn software suite available from DLS.[32] The 2D isotropic scattering patterns were corrected for the detector response, dark current background, and sample transmission and then azimuthally integrated to generate 1D scattering patterns. Under these conditions, the sample coherent normalized scattering intensity IN(q) is [drawing 2] 1 where Ip(q) is the normalized intensity scattered by the sample, Is(q) is the normalized intensity scattered by the solvent in our case HPLC grade water, Cp is the peptide concentration in g cm^–3, and Ib is the background scattering originating mainly from the incoherent scattering of the peptides. Is(q) was obtained by measuring the scattering of the solvent, HPLC grade water, and Ib was estimated using the Porod law that gives the scattered intensity of a two-phase system at high q values: [drawing 3] 2 where Kp is the Porod constant. Ib was estimated by fitting the last 40 data points of the 1D scattering patter using a Porod plot [q^4I(q) vs q^4].[33]−[36]
The formation of fibers and fibrillar entangle networks was confirmed by SAXS and TEM. […] From a Guinier representation, ln qI(q) vs q^2, the fibers cross-section radius of gyration, Rσ, can be obtained. Indeed, it has been shown that for thin rod-like structures for qRσ < 1 the scattering intensity can be written as[34],[39] [drawing 4] 3
From the fitting of the linear region, Rσ values of 1.2 ± 0.2 nm for K(FEFK)2 and 1.4 ± 0.2 nm for E(FKFE)2 were obtained. Assuming a cylindrical geometry, Rσ can be related to the fiber diameter, df, through: [drawing 5] 4

[7] = system: immortalized human bone marrow-derived MSC line (Y201); assay: 3D cell culture, PicoGreen assay; assay type: cell-based; conditions: MSCs, 3D culture, over 14 days
Description: as §1, §2
(§3) To quantify the number of cells present in the hydrogels, the amount of cells’ dsDNA was quantified via PicoGreen assay (Invitrogen, Thermo Fisher Scientific). […] When ready for analysis, the samples were removed from the −20 °C freezer, thawed at room temperature, and agitated until homogeneous. […] The assay plate was incubated at room temperature in the dark for 5 min then measured using a plate reader (CLARIOstar), using fluorescence detection with excitation at 480–512 nm and emission at 520 nm. […]

[8] = system: 3T3 mouse fibroblast; assay: 3D cell culture, PicoGreen assay; assay type: cell-based; conditions: 3T3 fibroblasts, 3D culture, 14 days; hydrogel prepared at 20 mg mL^–1
Description: as §1, §2, §3

Sequence	pKa-like transition assigned to deprotonation of lysine side chain amino groups, pH from which upward [1] [pH]	first pKa-like transition (deprotonation of glutamic acid side groups), pH [1] [pH]	hydrogel integrity when extracted from cell culture inserts [2]	hydrogel stability in excess water ([3]; 10 days, 37 °C)	cell viability (live/dead) [4]	hydrogel stability in MSC culture ([4]; after 14 days of 3D culture with MSCs)	fiber widths distribution maximum [5] [nm]	fibers cross-section radius of gyration, Rσ [6] [nm]	estimated fiber diameter, df [6] [nm]	shift of terminal NH3+ apparent pKa vs theoretical [unit]	change in cell number (PicoGreen) [7]	swelling ([3]; day 10, 37 °C)	cell proliferation (cell number, PicoGreen) [8]
EFKFEFKFE [E(FKFE)2]	≥ 10.0	≤ 4.5	some loss of integrity and loss of shape	unstable and after 10 days dissolved	higher	dissolve	4.5 ± 0.9	1.4 ± 0.2	4.0 ± 0.5	1	decrease in cell number	–	–
KFEFKFEFK [K(FEFK)2]	≥ 9.5	≤ 5	keep their integrity and shape	–	good	–	4.9 ± 1.0	1.2 ± 0.2	3.3 ± 0.5	–	no significant change in cell number	~30 % (v/v)	Significant proliferation
